The results in this text go back to article PMC3816736 (Biochemical pharmacology, 2013).

A word on the IC50: it is the concentration at which inhibition is half-maximal. A higher IC50 goes with lower potency.

For assay [1], the target named is T1, xanthine oxidase (XO) (Bos taurus, UniProt P80457). The experiment in a line: spectrophotometric uric acid formation at […] nm, […] compound. It is filed as biochemical.
Assay [2] deals with T1, xanthine oxidase (XO). Description: spectrophotometric uric acid formation at […] nm. It is filed as biochemical.

T1 sequence (P80457 2-1332): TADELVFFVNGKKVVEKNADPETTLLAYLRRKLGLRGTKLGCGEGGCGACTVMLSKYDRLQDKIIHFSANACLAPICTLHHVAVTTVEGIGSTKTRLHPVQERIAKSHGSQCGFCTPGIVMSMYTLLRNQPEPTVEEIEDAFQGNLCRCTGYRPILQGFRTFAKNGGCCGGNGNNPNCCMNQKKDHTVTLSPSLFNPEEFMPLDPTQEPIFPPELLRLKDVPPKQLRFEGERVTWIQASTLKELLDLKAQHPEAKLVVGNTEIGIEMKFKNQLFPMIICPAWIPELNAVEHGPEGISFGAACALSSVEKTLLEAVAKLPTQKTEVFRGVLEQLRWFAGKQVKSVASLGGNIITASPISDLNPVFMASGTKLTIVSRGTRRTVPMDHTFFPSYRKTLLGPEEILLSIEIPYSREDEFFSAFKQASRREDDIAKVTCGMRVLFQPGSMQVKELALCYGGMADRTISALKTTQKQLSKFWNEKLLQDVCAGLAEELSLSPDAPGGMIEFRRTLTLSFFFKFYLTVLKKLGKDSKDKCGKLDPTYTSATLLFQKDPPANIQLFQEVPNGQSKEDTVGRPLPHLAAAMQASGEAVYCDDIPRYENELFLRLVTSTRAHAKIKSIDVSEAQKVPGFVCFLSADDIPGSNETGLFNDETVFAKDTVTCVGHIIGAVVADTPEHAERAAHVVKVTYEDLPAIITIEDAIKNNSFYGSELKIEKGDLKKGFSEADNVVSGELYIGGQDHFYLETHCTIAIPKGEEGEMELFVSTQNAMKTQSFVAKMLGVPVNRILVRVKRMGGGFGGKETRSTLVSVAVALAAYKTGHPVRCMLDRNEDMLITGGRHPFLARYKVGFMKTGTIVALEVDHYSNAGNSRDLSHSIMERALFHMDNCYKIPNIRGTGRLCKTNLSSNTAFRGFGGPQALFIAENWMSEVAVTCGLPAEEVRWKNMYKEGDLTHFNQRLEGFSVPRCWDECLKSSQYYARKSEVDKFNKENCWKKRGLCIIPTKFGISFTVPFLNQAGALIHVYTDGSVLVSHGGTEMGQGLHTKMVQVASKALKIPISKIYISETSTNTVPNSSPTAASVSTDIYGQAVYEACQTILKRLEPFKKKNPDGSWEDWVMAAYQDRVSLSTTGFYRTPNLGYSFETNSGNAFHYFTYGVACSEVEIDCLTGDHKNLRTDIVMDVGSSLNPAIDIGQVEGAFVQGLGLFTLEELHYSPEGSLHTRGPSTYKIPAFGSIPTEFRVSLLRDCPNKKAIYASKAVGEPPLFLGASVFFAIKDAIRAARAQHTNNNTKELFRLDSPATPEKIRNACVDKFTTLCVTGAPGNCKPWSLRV

With `O=Cc1ccc(O)c(O)c1` [DHB-CHO, 3,4-dihydroxybenzaldehyde], the “spectrophotometric uric acid formation at 295 nm, 20 μM compound” value in assay [1] was “−CHO group such as DHNB, DH6NB, DHB-CHO and THB-CHO had an inhibitory effect on XO”.
In assay [2], `OCc1ccc(O)c(O)c1` [DHBA, 3,4-dihydroxybenzyl alcohol] yielded an IC50 of 76 µM.
Regarding `O=Cc1cc(O)c(O)c(O)c1` [THB-CHO, 3,4,5-trihydroxybenzaldehyde], in assay [2], the IC50 is more than 80 µM.
